Experimental data as given in patent US9045555B2, “Vaccine against amyloid folding intermediate” (priority 2008, dated 2015).

How the values were obtained:
[1] = ELISA of sera of immunized mice, coating homologous peptide-BSA conjugates (anti-peptide titre); assay type: in vivo, Balb/c mice
oligomeric Aβ 1-42 = assay: ELISA of sera of immunized mice, coating oligomeric Aβ 1-42 (cross-reactivity); assay type: in vivo, Balb/c mice; conditions: in vitro ELISA
fibrillar Aβ 1-42 = assay: ELISA of sera of immunized mice, coating fibrillar Aβ 1-42 (cross-reactivity); assay type: in vivo, Balb/c mice; conditions: in vitro ELISA
[2] = test system: Aβ deposits in post-mortem AD human brain tissue (hippocampus); assay: Immunohistochemical staining of human AD brain sections with sera of immunized mice; conditions: mouse serum 1:300, hippocampus cryosections, Braak 5 or 6; positive control 6E10
Source text: FIG. 6: Immunohistochemical staining of human brain section donor 99-30 (Braak 6) with a mouse serum (1:300) immunized with cyclo[Aβ(22-28)-YNGK]/tetanus toxoid conjugate (a) and the control monoclonal 6E10 (1:15.000) in (b). […] (Microscope: Leica DMRE fitted with a DC300 camera)
Human brain sections of the hippocampus of several donors with Alzheimer disease (Braak 5 or 6) were used (Netherlands Brain Bank). Cryosections (10 μm) were cut from unfixed directly frozen tissue, thaw-mounted, dried for 1 hour and stored in a sealed box at −20 C. For immunostaining, sections were fixed in 4% PFA-PBS solution for 10 min, washed in 0.05 M phosphate buffer (PB) for 10 min with 2 exchanges and blocked with 10% normal donkey serum (NDS)+0.4% TritonX100 in 0.05M PB for 1 hour at RT. The blocking solution was discarded and diluted mouse sera (1:300; first antibody) in 3% NDS+0.4% TritonX100 in 0.05 M PB was added and incubated 0/N at RT in a box with wet tissues. Sections were washed with 0.05M PB; at least 30 min with one or more exchanges. Then sections were incubated with Donkey-anti-Mouse˜Cy3 1:1400 in 0.05 M PB for 2 hours. Sections were washed with 0.05M PB; at least 30 min with one or more exchanges. Sections were sealed in Vectashield with Dapi (Vector). Mouse Monoclonal 6E10 to beta amyloid 1-17 (Abcam, Cambridge, UK) was used as positive control (1:15,000).

[3] = test system: conformational epitope of Aβ 1-42; assay: Antibody response in mice recognizing a conformational epitope of Aβ 1-42; assay type: in vivo; conditions: epitope as expressed in monomer, soluble oligomer, fibrils or neurodegenerative plaques

Substance	antipeptide antibody titers / antibody response to the immunizing peptide [1]	cross-reaction of elicited antibodies with Aβ (1-42)-oligomers (oligomeric Aβ 1-42)	cross-reaction of elicited antibodies with Aβ (1-42)-fibrils (fibrillar Aβ 1-42)	recognition of Aβ deposits / plaques in AD human brain tissue by elicited antibodies [2]	induction of an antibody response in mice specifically recognizing a conformational epitope of Aβ 1-42 [3]
Ac-K*EDVGSNKYNG-NH2 (Ac-K(tetanus toxoid)EDVGSNKYNG-NH2) [group 3, tetanus toxoid conjugate of the linear N-acetylated peptide amide]	good	did not recognize	did not recognize		
cyclo[EDVGSNKYNGK*] (cyclo(EDVGSNKYNGK(tetanus toxoid))) [group 9, tetanus toxoid conjugate of the cyclic peptide [Aβ(22-28)-YNGK*]]		cross-react	cross-react	recognize	able to induce an antibody response
